We go through 63 compounds from US8993585B2, “Cyclic amine substituted pyrimidinediamines as PKC inhibitors” (Rigel Pharmaceuticals, Inc., priority 2007, dated 2015).

Each structure is given as a SMILES string.

As usually defined, the IC50 is the concentration needed to halve the response being measured. High values mean a need for much substance, low ones inhibition by little substance.

One assay relates to Human primary T cells. The assay is described as follows: IL-2 ELISA, Human Primary T Cell, Anti-CD3+CD28+ (Example 3). As to conditions: Homo sapiens, T-cell, 24 h, anti-CD3+CD28 stimulation. Type of assay: cell-based. The method in brief:
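IL-2 was read by ELISA after stimulation on wells pre-coated with 1 ug/ml αCD3 and 5 μg/ml αCD28. Before this, 100,000 human primary T cells per well spent 1 h at 37 °C with test compound in Yssel's medium. The counter-screen replaced antibody stimulation with PMA (0.5 ng/ml final) and ionomycin (0.1 uM final).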
(ELISA stands for enzyme-linked immunosorbent assay.)
The compound `CCn1c(=O)oc2ccc(Nc3ncc(F)c(NC4CC(C)(C)NC(C)(C)C4)n3)cc21` [II-174] displayed an IC50 of 2940 nM.
Still for that read-out and setting: under `CN(C)c1ccc(-c2ccc(Nc3ncc(F)c(NC4CC(C)(C)N(C)C(C)(C)C4)n3)cc2C#N)cn1` [Compound I-426] stands 420 nM.
In the case of `COc1cc(O)cc(Nc2ncc(F)c(NC3CC(C)(C)N(C)C(C)(C)C3)n2)c1` [Compound I-436], the IC50 is 600 nM.
`COc1cnc(Nc2ccc3c(c2)OCCO3)nc1NC1CC(C)(C)N(C)C(C)(C)C1` [II-129] came in with an IC50 of 10900 nM.
The compound `C#Cc1cnc(Nc2ccc3c(c2)OC(C)(C)C(=O)N3CC)nc1NC1CC(C)(C)N(C)C(C)(C)C1` [II-152] showed a concentration for half-maximal inhibition (IC50) of 540 nM.
Turning to `COc1cc(Nc2ncc(F)c(N(Cc3ccc(-c4ccccc4C#N)cc3)C3CC(C)(C)N(C)C(C)(C)C3)n2)cc(OC)c1` [Compound I-325], the IC50 is 3460 nM.
As to `CN1C(C)(C)CC(Nc2nc(N[C@H]3CCc4ccccc43)ncc2F)CC1(C)C` [II-83], it took 19600 nM to reach half-maximal inhibition (IC50).
Compound `CN1C(C)(C)CC(Nc2nc(Nc3ccc4c(c3)OC(F)(F)O4)ncc2F)CC1(C)C` [II-37] came in with an IC50 of 1370 nM.
The compound `CCN1C(=O)C(C)(C)Oc2cc(Nc3ncc(C#N)c(NC4CC(C)(C)NC(C)(C)C4)n3)ccc21` [II-57] gave an IC50 of 147 nM.
Turning to `Cc1ccc(C)n1-c1cc(Nc2ncc(F)c(NC3CC(C)(C)NC(C)(C)C3)n2)ccc1OCCN1CCOCC1` [Compound I-441], it took 1690 nM to reach half-maximal inhibition (IC50).
On the same count and under the same terms, under `Cc1ccc(Nc2ncc(F)c(N(Cc3ccc4ccccc4c3)C3CC(C)(C)N(C)C(C)(C)C3)n2)cc1C#N` [Compound I-315] stands 3390 nM; under `COc1cc(Nc2ncc(F)c(N(Cc3ccc4ccccc4n3)C3CC(C)(C)N(C)C(C)(C)C3)n2)cc(OC)c1` [Compound I-322], 5790 nM; under `CN1C(C)(C)CC(Nc2nc(Nc3cc4c(cc3F)OC(F)(F)C(F)(F)O4)ncc2F)CC1(C)C` [II-123], 880 nM.
`CCN1C(=O)C(C)(C)Oc2cc(Nc3ncc(C(F)(F)F)c(NC4CC(C)(C)N(C)C(C)(C)C4)n3)ccc21` [II-50]: half-maximal inhibition (IC50) was put at 91.8 nM.
Take `Cc1ccc(C)n1-c1cc(Nc2ncc(F)c(NC3CC(C)(C)N(C)C(C)(C)C3)n2)ccc1OCCN1CCCC1` [Compound I-440]: half-maximal inhibition (IC50) required 520 nM.
Take `CC1(C)CC(Nc2nc(Nc3ccc4c(c3)oc(=O)n4CCN3CCOCC3)ncc2C#N)CC(C)(C)N1` [II-170]: the IC50 was found to be 15800 nM.
Compound `COC(=O)CCN1C(C)(C)CC(Nc2nc(Nc3cc(Cl)cc(Cl)c3)ncc2F)CC1(C)C` [Compound I-294] registered an IC50 of 4550 nM.
The compound `CN1C(C)(C)CC(N(Cc2ccc(-c3ccccc3)cc2)c2nc(Nc3ccc4c(c3)OCCO4)ncc2F)CC1(C)C` [II-88] came in with an IC50 of 2480 nM.
The compound `CN1C(=O)C(F)(F)Oc2cc(Nc3ncc(Cl)c(NC4CC(C)(C)N(C)C(C)(C)C4)n3)ccc21` [II-28] yielded an IC50 of 550 nM.
Same read-out and setting: under `CN1C(C)(C)CC(Nc2nc(Nc3ccc4cnn(C)c4c3)ncc2F)CC1(C)C` [II-41] stands 1610 nM.
`CN1C(C)(C)CC(Nc2nc(Nc3nc(C#N)c(C#N)[nH]3)ncc2F)CC1(C)C` [II-22] came in with an IC50 of 37300 nM.
Regarding `CN1C(C)(C)CC(Nc2nc(Nc3ccc4c(c3)OC(C)(C)C(=O)N4CCCF)ncc2C#N)CC1(C)C` [II-81], the IC50 amounted to 567 nM.
The compound `CC1(C)CC(Nc2nc(Nc3ccc(-c4ccc(N5CCOCC5)nc4)c(C#N)c3)ncc2F)CC(C)(C)N1` [Compound I-429] showed an IC50 of 770 nM.
In turn, `CN1C(C)(C)CC(Nc2nc(Nc3nc(-c4ccc(NS(=O)(=O)c5ccc(Cl)cc5)cc4)cs3)ncc2F)CC1(C)C` [II-142] came in with an IC50 of 1030 nM.

The same assay, now with this note: T-cell, anti-CD3+CD28 stimulation, 24 hours.
`CCN1C(=O)C(C)(C)Oc2cc(Nc3ncc(C#C[Si](C)(C)C)c(NC4CC(C)(C)N(C)C(C)(C)C4)n3)ccc21` [II-151] displayed an IC50 of 1250 nM.

Still in this assay, the particulars now being: anti-CD3+CD28 stimulation, 24 hours.
In turn, `CN1C(C)(C)CC(Nc2nc(Nc3ccc(-n4cccc4)c(C#N)c3)ncc2C#N)CC1(C)C` [Compound I-206] yielded a 50% inhibitory concentration (IC50) of 1030 nM.
`CN1C(C)(C)CC(Nc2nc(Nc3ccc(N4CCN(S(C)(=O)=O)CC4)c(Cl)c3)ncc2F)CC1(C)C` [Compound I-61] had an IC50 of 94 nM.
Compound `CN1C(C)(C)CC(Nc2nc(Nc3cc(F)c(F)c(F)c3)ncc2F)CC1(C)C` [Compound I-347] came in with an IC50 of 617 nM.
`CN1C(C)(C)CC(Nc2nc(Nc3ccc(OC(F)(F)F)c(-c4cnn(C)c4)c3)ncc2F)CC1(C)C` [Compound I-210] yielded an IC50 of 1240 nM.
Compound `CN1CCN(c2ccc(Nc3ncc(F)c(NC4CC(C)(C)NC(C)(C)C4)n3)cc2C(F)(F)F)CC1` [Compound I-255] gave an IC50 of 236 nM.
Compound `CN1C(C)(C)CC(Nc2nc(Nc3ccc(F)c(-c4ccncc4)c3)ncc2F)CC1(C)C` [Compound I-191] showed an IC50 of 700 nM.
In turn, `COc1ccc(Nc2ncc(F)c(NC3CC(C)(C)N(C)C(C)(C)C3)n2)cc1OC` [Compound I-130] came in with an IC50 of 1100 nM.
Still for that read-out and setting: under `COc1cc(Nc2ncc(C(N)=O)c(NC3CC(C)(C)N(C)C(C)(C)C3)n2)cc(-n2cnnn2)c1` [Compound I-390] stands 680 nM; under `COc1ccc(Nc2ncc(C)c(NC3CC(C)(C)N(C)C(C)(C)C3)n2)cc1Cl` [Compound I-27], 497 nM.
On to `COCCOc1cc(Nc2ncc(F)c(NC3CC(C)(C)N(C)C(C)(C)C3)n2)cc(OCCOC)c1` [Compound I-385], for which the IC50 turned out to be 1180 nM.
Same read-out and setting: the value for `CN1C(C)(C)CC(Nc2nc(Nc3ccc(S(=O)(=O)N4CCNCC4)c(Cl)c3)ncc2F)CC1(C)C` [Compound I-46] was 14300 nM.
Still for that read-out and setting: the value for `CN1C(C)(C)CC(Nc2nc(Nc3ccc(N4CCN(S(C)(=O)=O)CC4)c(C(F)(F)F)c3)ncc2[N+](=O)[O-])CC1(C)C` [Compound I-78] was 928 nM.
On the same count and under the same terms, the value for `CCN1CCN(c2ccc(Nc3ncc(C)c(NC4CC(C)(C)N(C)C(C)(C)C4)n3)cc2C)CC1` [Compound I-18] was 9440 nM; that for `CC1(C)CC(Nc2nc(Nc3ccc(OCCN4CCOCC4)c(Cl)c3)ncc2C#N)CC(C)(C)N1` [Compound I-445] was 910 nM; that for `CN1C(C)(C)CC(Nc2nc(Nc3ccc(OC(F)(F)F)c(-c4cc5ccccc5s4)c3)ncc2F)CC1(C)C` [Compound I-211] was 1700 nM.
`COc1cc(Nc2ncc(C#N)c(NC3CC(C)(C)NC(C)(C)C3)n2)cc(-n2cnnn2)c1` [Compound I-403] registered an IC50 of 500 nM.
`CN1CCN(C(=O)c2ccc(Nc3ncc(F)c(NC4CC(C)(C)N(C)C(C)(C)C4)n3)cc2Cl)CC1` [Compound I-44] came in with an IC50 of 2010 nM.
`CC1(C)CC(Nc2nc(Nc3ccc(N4CCN(S(C)(=O)=O)CC4)c(C(F)(F)F)c3)ncc2F)CC(C)(C)N1` [Compound I-257] gave an IC50 of 423 nM.
As for `COc1ccc(Nc2ncc(F)c(NC3CCC(C)(C)N(C)C(C)(C)C3)n2)cc1C(F)(F)F` (stereo not drawn) [Compound I-268, 5-Fluoro-N2-[4-methoxy-3-trifluoromethyl]phenyl-N4-(1,2,2,7,7-pentamethylazepan-4-yl)-2,4-pyrimidinediamine], the IC50 came out at 31700 nM.
On to `CN1C(C)(C)CC(Nc2nc(Nc3ccc(F)c(-n4cnnn4)c3)ncc2C(N)=O)CC1(C)C` [Compound I-468], for which inhibition was half-maximal at 2690 nM (IC50).
On to `COc1cc(C)c(Nc2ncc(F)c(NC3CC(C)(C)N(C)C(C)(C)C3)n2)cc1OC` [Compound I-380], for which half-maximal inhibition (IC50) was put at 19500 nM.
Compound `CN1C(C)(C)CC(Nc2nc(Nc3ccc(Cl)c(Cl)c3)ncc2F)CC1(C)C` [Compound I-336] registered an IC50 of 2040 nM.
`Cc1csc(-c2ccc(Nc3ncc(F)c(NC4CC(C)(C)N(C)C(C)(C)C4)n3)cc2C(F)(F)F)c1` [Compound I-116] had an IC50 of 1230 nM.
Still for that read-out and setting: under `CC(C)N1C(=O)C(C)(C)S(=O)(=O)c2cc(Nc3ncc(F)c(NC4CC(C)(C)N(C)C(C)(C)C4)n3)ccc21` [II-67] stands 811 nM.
The same measure, in the same setting: under `CN1C(C)(C)CC(Nc2nc(Nc3cc(O)cc(O)c3)ncc2F)CC1(C)C` [Compound I-384] stands 9510 nM.
`CN1C(C)(C)CC(Nc2nc(Nc3ccc(C#N)cc3)ncc2F)CC1(C)C` [Compound I-25] showed an IC50 of 4890 nM.
Compound `CN1C(C)(C)CC(Nc2nc(Nc3ccc(-c4cc5ccccc5s4)c(C(F)(F)F)c3)ncc2F)CC1(C)C` [Compound I-114] registered an IC50 of 1880 nM.
`CN1C(C)(C)CC(Nc2nc(Nc3cc(F)cc(F)c3)ncc2F)CC1(C)C` [Compound I-354] gave an IC50 of 595 nM.
On to `CC1(C)CC(Nc2nc(Nc3cc(O)cc(O)c3)ncc2F)CC(C)(C)N1` [Compound I-383], for which the IC50 turned out to be 30000 nM.
In turn, `COc1cc(Nc2ncc(F)c(NC3CC(C)(C)N(C)C(C)(C)C3)n2)cc(C(F)(F)F)c1` [Compound I-145] gave an IC50 of 897 nM.
For `CN1C(C)(C)CC(Nc2nc(Nc3cc(-c4cccnc4)cc(C(F)(F)F)c3)ncc2F)CC1(C)C` [Compound I-202], the midpoint of inhibition, the IC50, lay at 615 nM.
The compound `CN1C(C)(C)CC(Nc2nc(Nc3cccc(C(N)=O)c3)ncc2F)CC1(C)C` [Compound I-24] registered an IC50 of 1520 nM.
`CN1CCN(c2cc(Nc3ncc(F)c(NC4CC(C)(C)N(C)C(C)(C)C4)n3)ccc2Cl)CC1` [Compound I-65] registered an IC50 of 1980 nM.
`CN1CC2(C)CN(c3ccc(Nc4ncc(F)c(NC5CC(C)(C)N(C)C(C)(C)C5)n4)cc3C(F)(F)F)CC(C)(C1)C2` [Compound I-259] returned an IC50 of 2540 nM.
On the same count and under the same terms, under `COc1ccc(Nc2ncc(C(N)=O)c(NC3CC(C)(C)N(C)C(C)(C)C3)n2)cc1Cl` [Compound I-85] stands 631 nM; under `COc1ccc(Nc2ncc(F)c(NC3CCC(C)(C)N(C)C(C)(C)C3)n2)cc1Cl` (stereo not drawn) [Compound I-262, 5-Fluoro-N2-[3-chloro-4-methoxy]phenyl-N4-(1,2,2,7,7-pentamethylazepan-4-yl)-2,4-pyrimidinediamine], 14800 nM.
In turn, `CN1C(C)(C)CC(Nc2nc(Nc3cnc(N4CCN(S(C)(=O)=O)CC4)c(Cl)c3)ncc2F)CC1(C)C` [Compound I-289] yielded an IC50 of 424 nM.
The compound `CN1C(C)(C)CC(Nc2nc(Nc3cccc(NS(C)(=O)=O)c3)ncc2F)CC1(C)C` [Compound I-243] had a 50% inhibitory concentration (IC50) of 684 nM.
